# Measurements published in patent US20250235399A1, “METHODS OF PREPARING CARRIER-BASED DRY POWDERS FOR INHALATION” (Board of Regents, The University of Texas System, priority 2022, published 2025).
# Assays:
# [1] = Particle size of budesonide blend starting materials (HELOS/RODOS laser diffraction); format: physicochemical; conditions: RODOS laser diffraction, 3 bar, 50% rotation
# Procedure: Particle size distribution of alpha-lactose monohydrate, magnesium stearate and budesonide were analyzed using a laser diffractometer (Sympatec, Clausthal-Zellerfeld, Germany). […] About 0.5 g of each component was carefully loaded on the turntable of the vibratory feeding module. Samples were dispersed at 3 bar and 50% rotation (FIG. 11). Data was acquired using Windox software (Sympatec, Clausthal-Zellerfeld, Germany) and volume-based size distribution was calculated using Fraunhofer theory.
# Table 6 lists the particle size distribution for starting materials as determined by laser diffraction. Budesonide was confirmed to be sufficiently micronized (e.g. less than 5 μm). Magnesium stearate and lactose size distributions were within the size ranges provided by manufacturers.
# [2] = Geometric particle size of rifampicin blends and starting materials (HELOS laser diffraction, RODOS); format: physicochemical; conditions: Table 3; for X10 / X50 / X90: particle size distribution
# Procedure: The geometric particle size of the powder blends was measured using laser diffraction (HELOS, Sympatec, Germany) for the pre-blend and after each blending cycle. Measurements were done using a RODOS powder disperser at a pressure drop of 1 bar and rotor speed set at 50% (FIG. 6). […] The particles diameter is expressed as the mean Xn diameter values, where n % of the particles have a diameter≤X. Jaffari, S., et al. Rapid Characterisation of the Inherent Dispersibility of Respirable Powders Using Dry Dispersion Laser Diffraction. Int. J. Pharm. […] A measure of particle size distribution breadth is represented by the calculated factor “Span”. This was calculated using the following expression: (X90−X10)/X50.
# Particle size analysis was conducted on blended materials and compared to pre-blend and lactose/magnesium stearate controls.
Molecule,D10 [1] [μm],D50 [1] [μm],D90 [1] [μm],Span ((X90-X10)/X50) [2],X10 [2] [μm],X50 [2] [μm],X90 [2] [μm]
"O.OC[C@H]1O[C@@H](O[C@H]2[C@H](O)[C@@H](O)[C@@H](O)O[C@@H]2CO)[C@H](O)[C@@H](O)[C@H]1O [Lactose, Alpha-lactose monohydrate]",32.09,80.34,111.84,,,,
Magnesium stearate,1.29,4.45,9.93,1.87,2.08,8.14,17.34
O.OC[C@H]1O[C@@H](O[C@H]2[C@H](O)[C@@H](O)[C@@H](O)O[C@@H]2CO)[C@H](O)[C@@H](O)[C@H]1O [Lactohale 206],,,,,1.91,4.15,116.14
